Strand notation (5' to 3'): a small letter for the sugar, then the base; units joined by * are phosphorothioate-linked, units joined directly phosphodiester-linked; [ ] holds rarer units or linkages, { } end groups; capitals alone tell only the bases. e = 2'-O-(2-methoxyethyl) (MOE); [5mC] = 5-methylcytosine; d = 2'-deoxy (DNA)
Legend:
human CETP mRNA [1] = test: Antisense inhibition of human CETP mRNA in SW872 liposarcoma cells (Example 1); assay type: cell-based; settings: 150 nM antisense oligonucleotide, lipofectin, ~24 hours, relative to untreated control cells
Procedure: Antisense oligonucleotides targeted to a CETP nucleic acid were tested for their effect on CETP mRNA transcript in vitro. Cultured SW872 liposarcoma cells at a density of 50,000 cells per well in a 24-well plate were transfected using lipofectin reagent with 150 nM antisense oligonucleotide. After approximately 24 hours, RNA was isolated from the cells and CETP mRNA levels were measured by quantitative real-time PCR. A human primer probe set (forward sequence […], designated herein as SEQ ID NO: 38; reverse sequence GGCTCACGCCTTTGCTGTT, designated herein as SEQ ID NO: 39; probe sequence […], designated herein as SEQ ID NO: 40) was used to quantitate CETP mRNA. CETP mRNA transcript levels were adjusted according to total RNA content, as measured by the house-keeping gene, GAPDH mRNA levels. GAPDH was measured using a primer probe set with the sequence as set forth in SEQ ID NOs: 10, 11, 13. Results are presented as percent inhibition of CETP, relative to untreated control cells.
The antisense oligonucleotides in Table 3 are 5-10-5 gapmers, where the gap segment comprises ten 2′-deoxynucleosides and each wing segment comprises five 2′-MOE nucleosides. Each nucleotide in the 5′ wing segment and each nucleotide in the 3′ wing segment has a 2′-MOE modification. The internucleoside linkages throughout each gapmer are phosphorothioate (P═S) linkages. All cytosine residues throughout each gapmer are 5-methylcytosines. ‘Target start site’ indicates the 5′-most nucleotide to which the antisense oligonucleotide is targeted. ‘Target stop site’ indicates the 3′-most nucleotide to which the antisense oligonucleotide is targeted. All the antisense oligonucleotides listed in Table 3 target human CETP mRNA, designated herein as SEQ ID NO: 1 (GENBANK Accession No. M30185.1).

human CETP mRNA [2] = test: Antisense inhibition of human CETP mRNA in primary hepatocytes from huCETP transgenic mice (Example 4); assay type: cell-based, mouse; settings: cytofectin, ~24 hours
Procedure: Transgenic mice expressing human CETP, controlled by its natural flanking region, increase expression of this gene in response to hypercholesterolemia (Jiang, X. C. et al., J. Clin. Invest. 1992. 90: 1290-1295). These mice were utilized for the following studies. Antisense oligonucleotides targeted to a CETP nucleic acid and described in Example 1 were tested for their effect on CETP mRNA transcript in vitro. Cultured primary hepatocytes from huCETP transgenic mice, at a density of 17,500 cells per well in a 96-well plate, were transfected using cytofectin reagent with 100 nM or 200 nM antisense oligonucleotide. After approximately 24 hours, RNA was isolated from the cells and CETP mRNA levels were measured by quantitative real-time PCR. CETP mRNA transcript levels were adjusted according to total RNA content, as measured by the house-keeping gene, GAPDH mRNA levels. Results are presented in Table 6 as percent inhibition of CETP, relative to untreated control cells.

[3] = Plasma cholesterol and triglyceride levels in huApoB/huCETP/mLDLr mouse model (Example 7); assay type: in vivo, mice; settings: huApoB+/−huCETP+/−mLDLr+/− mice (Groups B-E), ASO 25 mg/kg s.c. twice/week
Source text: The huApoB^+/−huCETP^+/−mLDLr^+/− mice were divided into five groups of 5-7 mice each. […] The saline-injected group served as the control group to which oligonucleotide-treated groups were compared. […] This group served a negative control for the effects of the antisense oligonucleotides against CETP. The groups are further described in Table 27, and are designated letters A-F, by which they will be referred from henceforth.
HDL and LDL cholesterol were individually measured by HPLC. Triglyceride levels were measured on weeks 0, 3 and 6 with the use of a commercially available triglyceride kit (DCL Triglyceride Reagent; Diagnostic Chemicals Ltd.).

ISIS 133837: 5-10-5 MOE gapmer TCCACCAGCAGGTGCTCAGG (eT*e[5mC]*e[5mC]*eA*e[5mC]*d[5mC]*dA*dG*d[5mC]*dA*dG*dG*dT*dG*d[5mC]*eT*e[5mC]*eA*eG*eG)
% inhibition (human CETP mRNA [1]): 70%

ISIS 349510: 5-10-5 MOE gapmer TCTAGCTCAAGCTCTGGAGG (eT*e[5mC]*eT*eA*eG*d[5mC]*dT*d[5mC]*dA*dA*dG*d[5mC]*dT*d[5mC]*dT*eG*eG*eA*eG*eG)
% inhibition (human CETP mRNA [1]): 64%
Percent inhibition of human CETP mRNA (human CETP mRNA [2]; 100 nM): 65%
Percent inhibition of human CETP mRNA (human CETP mRNA [2]; 200 nM): 88%

ISIS 349488: 5-10-5 MOE gapmer GCACTGCCTTGAACTCGTCT (eG*e[5mC]*eA*e[5mC]*eT*dG*d[5mC]*d[5mC]*dT*dT*dG*dA*dA*d[5mC]*dT*e[5mC]*eG*eT*e[5mC]*eT)
% inhibition (human CETP mRNA [1]): 47%
Percent inhibition of human CETP mRNA (human CETP mRNA [2]; 100 nM): 77%
Percent inhibition of human CETP mRNA (human CETP mRNA [2]; 200 nM): 87%

ISIS 349491: 5-10-5 MOE gapmer AGCCGCCGACAACCTCTTGG (eA*eG*e[5mC]*e[5mC]*eG*d[5mC]*d[5mC]*dG*dA*d[5mC]*dA*dA*d[5mC]*d[5mC]*dT*e[5mC]*eT*eT*eG*eG)
% inhibition (human CETP mRNA [1]): 45%
Percent inhibition of human CETP mRNA (human CETP mRNA [2]; 100 nM): 60%
Percent inhibition of human CETP mRNA (human CETP mRNA [2]; 200 nM): 74%

ISIS 349482: 5-10-5 MOE gapmer TGAAATGACCCTTGTGATGG (eT*eG*eA*eA*eA*dT*dG*dA*d[5mC]*d[5mC]*d[5mC]*dT*dT*dG*dT*eG*eA*eT*eG*eG)
% inhibition (human CETP mRNA [1]): 51%
Percent inhibition of human CETP mRNA (human CETP mRNA [2]; 100 nM): 11%
Percent inhibition of human CETP mRNA (human CETP mRNA [2]; 200 nM): 65%

ISIS 349444: 5-10-5 MOE gapmer TCCTGGCCCCAGAGATTCAC (eT*e[5mC]*e[5mC]*eT*eG*dG*d[5mC]*d[5mC]*d[5mC]*d[5mC]*dA*dG*dA*dG*dA*eT*eT*e[5mC]*eA*e[5mC])
% inhibition (human CETP mRNA [1]): 20%
Percent inhibition of human CETP mRNA (human CETP mRNA [2]; 100 nM): 59%
Percent inhibition of human CETP mRNA (human CETP mRNA [2]; 200 nM): 0%

ISIS 349487: 5-10-5 MOE gapmer CCCATCAGGCTGAGCATGAG (e[5mC]*e[5mC]*e[5mC]*eA*eT*d[5mC]*dA*dG*dG*d[5mC]*dT*dG*dA*dG*d[5mC]*eA*eT*eG*eA*eG)
% inhibition (human CETP mRNA [1]): 73%
Percent inhibition of human CETP mRNA (human CETP mRNA [2]; 100 nM): 84%
Percent inhibition of human CETP mRNA (human CETP mRNA [2]; 200 nM): 68%

ISIS 349480: 5-10-5 MOE gapmer TGTCTCCATCTGAAAGGATG (eT*eG*eT*e[5mC]*eT*d[5mC]*d[5mC]*dA*dT*d[5mC]*dT*dG*dA*dA*dA*eG*eG*eA*eT*eG)
% inhibition (human CETP mRNA [1]): 74%
Percent inhibition of human CETP mRNA (human CETP mRNA [2]; 100 nM): 46%
Percent inhibition of human CETP mRNA (human CETP mRNA [2]; 200 nM): 40%

ISIS 349464: 5-10-5 MOE gapmer CTTCCACCAGCTCCACCTGG (e[5mC]*eT*eT*e[5mC]*e[5mC]*dA*d[5mC]*d[5mC]*dA*dG*d[5mC]*dT*d[5mC]*d[5mC]*dA*e[5mC]*e[5mC]*eT*eG*eG)
% inhibition (human CETP mRNA [1]): 50%
Percent inhibition of human CETP mRNA (human CETP mRNA [2]; 100 nM): 8%
Percent inhibition of human CETP mRNA (human CETP mRNA [2]; 200 nM): 56%

ISIS 349481: 5-10-5 MOE gapmer AGGTAGGAGGCTGTGATGAC (eA*eG*eG*eT*eA*dG*dG*dA*dG*dG*d[5mC]*dT*dG*dT*dG*eA*eT*eG*eA*e[5mC])
% inhibition (human CETP mRNA [1]): 66%
Percent inhibition of human CETP mRNA (human CETP mRNA [2]; 100 nM): 79%
Percent inhibition of human CETP mRNA (human CETP mRNA [2]; 200 nM): 65%

ISIS 349486: 5-10-5 MOE gapmer GAAAGCTACCTTGGCCAGCG (eG*eA*eA*eA*eG*d[5mC]*dT*dA*d[5mC]*d[5mC]*dT*dT*dG*dG*d[5mC]*e[5mC]*eA*eG*e[5mC]*eG)
% inhibition (human CETP mRNA [1]): 55%
Percent inhibition of human CETP mRNA (human CETP mRNA [2]; 100 nM): 72%
Percent inhibition of human CETP mRNA (human CETP mRNA [2]; 200 nM): 53%

ISIS 349449: 5-10-5 MOE gapmer CGAGCCGTTCAGCCTGGAGC (e[5mC]*eG*eA*eG*e[5mC]*d[5mC]*dG*dT*dT*d[5mC]*dA*dG*d[5mC]*d[5mC]*dT*eG*eG*eA*eG*e[5mC])
% inhibition (human CETP mRNA [1]): 28%
Percent inhibition of human CETP mRNA (human CETP mRNA [2]; 100 nM): 68%
Percent inhibition of human CETP mRNA (human CETP mRNA [2]; 200 nM): 63%

O=C(O)c1cccnc1 [Nicotinic acid, nicotinic acid, reference compound]
% HDL/total cholesterol ([3]; Week 0): 23%
HDL cholesterol levels ([3]; Week 0): 45 mg/dL
LDL cholesterol levels ([3]; Week 0): 122 mg/dL
Total cholesterol levels ([3]; Week 0): 195 mg/dL
Triglyceride levels ([3]; Week 0): 134 mg/dL
% HDL/total cholesterol ([3]; Week 3): 34%
HDL cholesterol levels ([3]; Week 3): 57 mg/dL
LDL cholesterol levels ([3]; Week 3): 102 mg/dL
Total cholesterol levels ([3]; Week 3): 169 mg/dL
Triglyceride levels ([3]; Week 3): 108 mg/dL
% HDL/total cholesterol ([3]; Week 6): 39%
HDL cholesterol levels ([3]; Week 6): 65 mg/dL
LDL cholesterol levels ([3]; Week 6): 102 mg/dL
Total cholesterol levels ([3]; Week 6): 170 mg/dL
Triglyceride levels ([3]; Week 6): 138 mg/dL

ISIS 349505: 5-10-5 MOE gapmer CACTACCTCGAGCCGAGACA (e[5mC]*eA*e[5mC]*eT*eA*d[5mC]*d[5mC]*dT*d[5mC]*dG*dA*dG*d[5mC]*d[5mC]*dG*eA*eG*eA*e[5mC]*eA)
% inhibition (human CETP mRNA [1]): 55%
Percent inhibition of human CETP mRNA (human CETP mRNA [2]; 100 nM): 98%
Percent inhibition of human CETP mRNA (human CETP mRNA [2]; 200 nM): 99%

ISIS 349508: 5-10-5 MOE gapmer TCTCGAGTGATAATCTCAGG (eT*e[5mC]*eT*e[5mC]*eG*dA*dG*dT*dG*dA*dT*dA*dA*dT*d[5mC]*eT*e[5mC]*eA*eG*eG)
% inhibition (human CETP mRNA [1]): 24%
Percent inhibition of human CETP mRNA (human CETP mRNA [2]; 100 nM): 76%
Percent inhibition of human CETP mRNA (human CETP mRNA [2]; 200 nM): 86%

ISIS 349493: 5-10-5 MOE gapmer TGTTTTGGCAGGAGATCTTG (eT*eG*eT*eT*eT*dT*dG*dG*d[5mC]*dA*dG*dG*dA*dG*dA*eT*e[5mC]*eT*eT*eG)
% inhibition (human CETP mRNA [1]): 67%
Percent inhibition of human CETP mRNA (human CETP mRNA [2]; 100 nM): 51%
Percent inhibition of human CETP mRNA (human CETP mRNA [2]; 200 nM): 62%

ISIS 349499: 5-10-5 MOE gapmer CCAAGAGGCTTAAGAAGAGC (e[5mC]*e[5mC]*eA*eA*eG*dA*dG*dG*d[5mC]*dT*dT*dA*dA*dG*dA*eA*eG*eA*eG*e[5mC])
% inhibition (human CETP mRNA [1]): 55%
Percent inhibition of human CETP mRNA (human CETP mRNA [2]; 100 nM): 80%
Percent inhibition of human CETP mRNA (human CETP mRNA [2]; 200 nM): 80%

ISIS 349498: 5-10-5 MOE gapmer CTGGACGGTAGTCACGATAT (e[5mC]*eT*eG*eG*eA*d[5mC]*dG*dG*dT*dA*dG*dT*d[5mC]*dA*d[5mC]*eG*eA*eT*eA*eT)
% inhibition (human CETP mRNA [1]): 80%
Percent inhibition of human CETP mRNA (human CETP mRNA [2]; 100 nM): 76%
Percent inhibition of human CETP mRNA (human CETP mRNA [2]; 200 nM): 84%

ISIS 349452: 5-10-5 MOE gapmer CAGGACTGTGGCAGCCAGCA (e[5mC]*eA*eG*eG*eA*d[5mC]*dT*dG*dT*dG*dG*d[5mC]*dA*dG*d[5mC]*e[5mC]*eA*eG*e[5mC]*eA)
% inhibition (human CETP mRNA [1]): 75%
Percent inhibition of human CETP mRNA (human CETP mRNA [2]; 100 nM): 60%
Percent inhibition of human CETP mRNA (human CETP mRNA [2]; 200 nM): 51%

ISIS 349451: 5-10-5 MOE gapmer GCAGCCAGCATGGTTATCAG (eG*e[5mC]*eA*eG*e[5mC]*d[5mC]*dA*dG*d[5mC]*dA*dT*dG*dG*dT*dT*eA*eT*e[5mC]*eA*eG)
% inhibition (human CETP mRNA [1]): 23%
Percent inhibition of human CETP mRNA (human CETP mRNA [2]; 100 nM): 42%
Percent inhibition of human CETP mRNA (human CETP mRNA [2]; 200 nM): 54%
